The text below walks through data of publication PMC7616174, “Development of Novel 4-Arylpyridin-2-one and 6-Arylpyrimidin-4-one Positive Allosteric Modulators of the M1 Muscarinic Acetylcholine Receptor” (ChemMedChem, 2020).

For test [1], the target named is T1, hM1 mAChR (Homo sapiens, UniProt P11229).
T1 construct: expressed in transfected cells
T1 sequence (P11229 1-460): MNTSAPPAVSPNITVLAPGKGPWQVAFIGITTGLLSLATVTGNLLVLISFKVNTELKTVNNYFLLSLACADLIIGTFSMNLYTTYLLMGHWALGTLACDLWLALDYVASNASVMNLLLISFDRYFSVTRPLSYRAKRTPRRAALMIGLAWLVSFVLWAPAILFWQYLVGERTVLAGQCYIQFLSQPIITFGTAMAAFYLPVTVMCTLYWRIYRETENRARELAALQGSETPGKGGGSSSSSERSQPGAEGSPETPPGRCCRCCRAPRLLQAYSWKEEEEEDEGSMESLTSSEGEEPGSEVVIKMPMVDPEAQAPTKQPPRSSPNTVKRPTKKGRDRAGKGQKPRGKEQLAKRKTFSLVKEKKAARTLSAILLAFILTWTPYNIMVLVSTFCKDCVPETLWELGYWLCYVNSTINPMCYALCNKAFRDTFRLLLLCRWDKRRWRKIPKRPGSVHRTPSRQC
The experiment in a line: IP1 accumulation assay (ACh concentration-response curves in absence or presence of modulator). The settings on record: for αβ (functional cooperativity with ACh) / τB (intrinsic efficacy of the modulator) / log τB (logarithm of intrinsic efficacy of the modulator) / log αβ (logarithm of functional cooperativity between ACh and modulator): IP1 accumulation; for αβ (functional cooperativity with ACh) / τB (intrinsic efficacy of the modulator): antilog, in parentheses; for log τB (logarithm of intrinsic efficacy of the modulator) / log αβ (logarithm of functional cooperativity between ACh and modulator): operational model; for log αβ (logarithm of functional cooperativity between ACh and modulator): pKB constrained to binding value; for ΔpEC50 [1 μM]: change in ACh pEC50 in presence of M1 PAM compared to control curve / activation at 1 µM: 1 μM modulator; for ΔpEC50 [1 μM]: change in ACh pEC50 in presence of M1 PAM compared to control curve / activation at 1 µM / ΔpEC50 [10 μM]: change in ACh pEC50 in presence of M1 PAM compared to control curve / activation at 10 µM: FlpIn CHO hM1 cells, mean ± SEM, 3 experiments; for activation at 1 µM: read-out: Δbaseline [1 μM]: change in basal response in presence of M1 PAM compared to control curve; for ΔpEC50 [10 μM]: change in ACh pEC50 in presence of M1 PAM compared to control curve / activation at 10 µM: 10 μM modulator; for activation at 10 µM: read-out: Δbaseline [10 μM]: change in basal response in presence of M1 PAM compared to control curve. In kind it is cell-based. As to the method: Functional activity of the synthesized analogues as racemic mixtures was investigated in IP1 accumulation assays at the M1 mAChR, as described previously.[13–14] ACh concentration-response curves were generated in the absence or presence of a 1 and 10 μM concentration of each modulator. The change in baseline activity (Δbaseline) is an approximate measure of direct allosteric agonism (τB), whereas the pEC50 shift (ΔpEC50) is an approximate measure of functional cooperativity (αβ) of each modulator with ACh in the investigated signalling pathway. We aimed to identify modulators with various degrees of allosteric agonism and modulatory effects on ACh response, as these could generate distinct in vivo outcomes for applications in different conditions in the CNS or gastrointestinal (GI) tract.[[10g,h,j]]
(§1) The compounds were then fully characterised in two functional assays (Figure 2C and D); the Gq-coupled IP1 accumulation assay (Figure S2), which was used for the initial screening of the compounds, and a β-arrestin 2 recruitment assay (Figure S3). The operational efficacy (τB) values for the modulators and their functional cooperativity estimates with ACh (logαβACh) at both signalling pathways were estimated by applying an operational model of allosterism and agonism to the data [Eq. (3)],[16] and are listed in Table 5.
FlpIn CHO cells stably expressing the hM1 mAChR were seeded at 25000 per well of 96-well transparent cell culture plates and grown overnight. […] Cells were then stimulated with increasing concentration of ACh in the absence or presence of increasing concentrations of each modulator for 1 h at 37°C. […] Seven μL of cell lysates were transferred into wells of 384-well Proxiplates (Perki-nElmer Life Sciences), and IP1 levels were measured using the IP-One assay kit (Cisbio, Codolet, France). […] The signal was expressed as the HTRF ratio, interpolated from the standard curve, and normalized to the maximum response to ACh.
Changes in both baseline and pEC50 were quantified by subtracting the estimates at each M1 PAM concentrations with the control values. Propagation of the error on baseline and potency values were determined as follows [Eq. (1)]: σΔ=σPAM2+σcont.2 where σΔ is the standard error of the mean (SEM) for the change in value, and σPAM and σcont. are the SEM from the three-parameter logistic equation analysis in presence or absence of M1 PAM, respectively.
(§2) Functional interaction studies between ACh and allosteric modulators in IP1 and β-arrestin 2 recruitment assays were analysed according to a three-parameter logistic equation or the following operational model of allosterism and agonism [Eq. (3)].[16] E=Basal+(Em−Basal)([A](KB+αβ[B])+τB[B]EC50)^n/EC50n(KB+[B])^n+([A](KB+αβ[B])+τB[B]EC50)^n where Em is the maximal possible system response, and Basal is the response in the absence of agonist. [A] and [B] are concentrations of orthosteric and allosteric ligands, respectively. KB is the equilibrium dissociation constant of allosteric ligand, and EC50 is the concentration of orthosteric agonist required to achieve half maximal response. α and β represent the magnitude of the allosteric effects on orthosteric ligand affinity and efficacy, respectively; τB is the efficacy of allosteric ligand, and n is the slope factor of the transducer function that links occupancy to response.

In test [2] the target is T1, hM1 mAChR. Kind of test: Whole-cell [3H]NMS equilibrium competition radioligand binding. The settings on record: [3H]NMS binding; for α (binding cooperativity with ACh): antilog. As to the method:
To determine the affinity (pKB) of the allosteric modulators for the allosteric site, and their binding cooperativity with ACh (log αACh) at the M1 mAChR, whole cell equilibrium competition binding studies were performed, using [^3H]NMS to label the orthosteric site.
FlpIn Chinese hamster ovary (CHO) cells stably expressing the hM1 mAChR were grown in Dulbecco’s modified Eagle’s medium (DMEM) (Invitrogen, Carlsbad, CA) supplemented with 5% foetal bovine serum (FBS) (Thermo-Trace, Melbourne, Australia) and 300 μg/mL G418 (Invitrogen, Carlsbad, CA). The cells were plated at 50,000 cells per well of 96-well white clear bottom plates (Greiner Bio-one, Kremsmünster, Austria), and were grown overnight. The following day, cells were washed twice with Phosphate Buffered Saline (PBS), and incubated with increasing concentrations of ACh (Sigma) in the absence or presence of increasing concentrations of each modulator and 0.2 nM [^3H]NMS (PerkinElmer Life Sciences) in binding buffer (20 mM HEPES, 100 mM NaCl, 10 mM MgCl2, pH 7.4) for 5 h at room temperature. Nonspecific binding was determined using atropine at the final concentration of 10 μM. The assays were terminated by rapid removal of the unbound radioligand followed by two washes with 100 μL/well ice-cold 0.9% NaCl buffer. Radioactivity was determined by addition of 100 μL/well Ultima gold (PerkinElmer Life Sciences) and counting in a MicroBeta plate reader (PerkinElmer Life Sciences).
Binding interaction studies with allosteric ligands were fitted to the following allosteric ternary complex model [Eq. (2)][15] Y=Bmax|A|/[Λ]+[KAKB/α^′[B]+KB][1+[I]/K1+[B]/KB+α[I][B]/KIKB] where Bmax is the total number of receptors, [A], [B] and [I] denote the concentrations of radioligand, allosteric modulator, and orthosteric ligand, respectively; KA, KB and KI are their respective equilibrium dissociation constants. α’ and α are the affinity cooperativity factors between the allosteric ligand and radioligand or the allosteric modulator and ACh, respectively. Values of α or α’ > 1 denote positive cooperativity, values < 1 but > 0 denote negative cooperativity, and a value of 1 indicates neutral coopera-tivity.

Test [3] addresses T2, M1 mAChR (Homo sapiens, UniProt P11229).
T2 construct: expressed in transfected cells; host or cells: parental FlpIn CHO cells (transient, PEI)
T2 sequence (P11229 1-460): T1 sequence (P11229 1-460)
The experiment in a line: β-arrestin 2 recruitment assay (BRET). In kind it is cell-based. The note with it: for αβ (functional cooperativity with ACh) / τB (intrinsic efficacy of the modulator): antilog, in parentheses; for log τB (logarithm of intrinsic efficacy of the modulator) / log αβ (logarithm of functional cooperativity between ACh and modulator): operational model; for log αβ (logarithm of functional cooperativity between ACh and modulator): pKB constrained to binding value.
Text: as §1
Parental FlpIn CHO cells were plated at 30000 cells/well of 96-well white Culture plates (Perkin Elmer Life Sciences) and transiently transfected with 10 ng/well of M1 Renilla luciferase (Rluc)-8 and 40 ng/well of YFP-β-arrestin 2 using linear polyethyleneimine (PEI/DNA ratio 6:1) diluted in 150 mM NaCl. DNA:PEI complexes were formed by 15 min incubation at room temperature then added to the cells and incubated at 37°C for 24 h prior to use. Cells were then washed and equilibrated in Hanks’ balanced salt solution for 1 h at 37°C. Coelenterazine h at a final concentration of 5 μM was added to each well, followed by addition of increasing concentrations of ACh in the absence or presence of increasing concentrations of each modulator. Lumines-cence and fluorescence signals were measured 5 min after agonist stimulation using the LUMIstar Omega plate reader (BMG LabTech, Offenburg, Germany). […] Data were then normalized to the maximum response to ACh.
as §2
(Activated receptors often draw arrestin, which recruitment assays turn into a signal.)

The mark [4] stands for this setting: allosteric ternary complex model, mean ± SEM, read-out: pKB (negative logarithm of the allosteric modulator equilibrium dissociation constant) (converted).

Where two headings read alike, the source gives them in different places.

For `COc1ccc(Cn2cc(C(=O)O)c(=O)c3ccccc32)cc1` [BQCA, reference compound], in test [1], the “αβ (functional cooperativity with ACh)” value stood at 389; the “τB (intrinsic efficacy of the modulator)” value was 6; the “log τB (logarithm of intrinsic efficacy of the modulator)” value (from here on “log τB”) is listed as 0.76±0.03; the “log αβ (logarithm of functional cooperativity between ACh and modulator)” value (“log αβ” for short) was found to be 2.59±0.07. Besides, the “α (binding cooperativity with ACh)” value in test [2] (in parentheses) amounted to 245. The “log αACh (logarithm of binding cooperativity between ACh and modulator)” value (“log αACh” below) in test [2] (mean ± SEM) is given as 2.39±0.22. For the same molecule, in test [3], the “αβ (functional cooperativity with ACh)” value was 89; the “τB (intrinsic efficacy of the modulator)” value is on record as 1; the “log τB” value was “–0.03±0.10”; the “log αβ” value came out at 1.95±0.19.

Regarding `Cn1cc(-c2ccc(COc3ccccc3-c3ccn(C4CCCCC4O)c(=O)c3)cc2)cn1` (centres unmarked) [Compound 1, 1-(2-Hydroxycyclohexyl)-4-(2-((4-(1-methyl-1H-pyrazol-4-yl)-benzyl)oxy)phenyl)pyridin-2(1H)-one], in test [1], the “ΔpEC50 [1 μM]: change in ACh pEC50 in presence of M1 PAM compared to control curve” value (from here on “ΔpEC50 [1 μM]: change in ACh pEC50”) turned out to be 0.88±0.09, the activation at 1 µM came to 15.8 ± 2.3%, the “ΔpEC50 [10 μM]: change in ACh pEC50 in presence of M1 PAM compared to control curve” value (shortened to “ΔpEC50 [10 μM]: change in ACh pEC50”) worked out at 1.31±0.15 and the activation at 10 µM was found to be 58.3 ± 2.3%. Moreover, in test [1], the “αβ (functional cooperativity with ACh)” value came out at 100; the “τB (intrinsic efficacy of the modulator)” value is given as 4; the “log τB” value is given as 0.60±0.03; the “log αβ” value was determined as 2.00±0.10. The Kb in test [2] (setting [4]) is 11 µM. Further, the “α (binding cooperativity with ACh)” value in test [2] (in parentheses) was determined as 112. Moreover, the “log αACh” value in test [2] (mean ± SEM) is given as 2.05±0.17. In test [3], the “αβ (functional cooperativity with ACh)” value turned out to be 65; the “τB (intrinsic efficacy of the modulator)” value was determined as 1; the “log τB” value is given as “–0.01±0.05”; the “log αβ” value is recorded as 1.81±0.09.

`Cn1cc(-c2ccc(COc3ccsc3-c3ccn(C4CCCCC4O)c(=O)c3)cc2)cn1` (centres unmarked) [Compound 7h, 1-(2-Hydroxycyclohexyl)-4-(3-((4-(1-methyl-1H-pyrazol-4-yl)benzyl)oxy)thiophen-2-yl)pyridin-2(1H)-one]: in test [1], the “ΔpEC50 [1 μM]: change in ACh pEC50” value came out at 1.88±0.37, the activation at 1 µM was 70.8 ± 4%, the “ΔpEC50 [10 μM]: change in ACh pEC50” value was 2.28±0.77 and the activation at 10 µM turned out to be 90.3 ± 3.1%. For the same molecule, in test [1], the “αβ (functional cooperativity with ACh)” value was found to be 562; the “τB (intrinsic efficacy of the modulator)” value is recorded as 6; the “log τB” value worked out at 0.78±0.04; the “log αβ” value came out at 2.75±0.11. The Kb in test [2] (setting [4]) is 6.03 µM. In addition, in test [2] (in parentheses), the “α (binding cooperativity with ACh)” value is listed as 380. For the same molecule, the “log αACh” value in test [2] (mean ± SEM) was found to be 2.58±0.18. In addition, in test [3], the “αβ (functional cooperativity with ACh)” value was 955; the “τB (intrinsic efficacy of the modulator)” value is reported as 1; the “log τB” value was found to be 0.07±0.05; the “log αβ” value is recorded as 2.98±0.10.

`Cn1cc(-c2ccc(COc3ccccc3-c3ccn(C4CCCCC4=O)c(=O)c3)cc2)cn1` (centres unmarked) [Compound 13d, 4-(2-((4-(1-Methyl-1H-pyrazol-4-yl)benzyl)oxy)phenyl)-1-(2-oxocy-clohexyl)pyridin-2(1H)-one]: in test [1], the “ΔpEC50 [1 μM]: change in ACh pEC50” value is on record as 0.29±0.05, the activation at 1 µM was determined as 4.8 ± 1.4%, the “ΔpEC50 [10 μM]: change in ACh pEC50” value was determined as 1.31±0.06 and the activation at 10 µM stood at 27 ± 1.5%. In test [1], the “αβ (functional cooperativity with ACh)” value was 30; the “τB (intrinsic efficacy of the modulator)” value is 1; the “log αβ” value worked out at 1.48±0.11. Moreover, the Kb in test [2] (setting [4]) is 29.5 µM. Moreover, in test [2] (antilog of pKB, in parentheses, read-out: KB (converted)), the Kb is 30 µM. Moreover, the “α (binding cooperativity with ACh)” value in test [2] (in parentheses) was 52. The “log αACh” value in test [2] (mean ± SEM) is recorded as 1.72±0.20. In test [3], the “αβ (functional cooperativity with ACh)” value came out at 14; the “log αβ” value amounted to 1.16±0.17.
